Data set [1] deals with T1, human FABP3 (Homo sapiens, UniProt P05413).
T1 construct: His-tag (N); TEV cleavage site (N); made in house; host or cells: E. coli BL21(DE3)
Put plainly: ITC determination of heat capacity change at 16, 25 and 37 °C. The data set is classed as binding. Particulars: ΔH at 16, 25, 37 °C, linear regression. From the text:
Heat capacity changes, ΔCp, are important indicators of the structural changes during ligand-to-protein binding in various environmental conditions and may reflect changes in the static and dynamic properties of the protein [33, 34]. Moreover, it may represent interactions with extra supplements, such as salts and detergents, and larger processes, such as changes in protein folding, solvent-accessible surface area (SASA), or protonation states within the active site. […] Thermodynamic parameters for the remaining LCFAs were determined in the KPi + TX buffer, while LCACs were tested in the KPi buffer without any additive. Figure 7 represents an example of the overlays of the ITC experiments for C18:1(n-9)c and the corresponding LCAC performed at the following temperatures: 16, 25, and 37 °C.
(§1) ITC experiments were carried out on the MicroCal™ iTC200 instrument (Malvern Instruments Ltd., Malvern, UK). Experiments were performed in KPi buffer without and with 0.1% (v/v) TX supplement. All titrations except for the determination of the heat capacity, ΔCp, were performed at 25 °C using 20–120 μM protein. Experiments for the determination of the ΔCp were performed at three different temperatures: 16, 25, and 37 °C. 280 μL of the protein solution in the sample cell were titrated with the ligand solution diluted to 200–1200 μM depending on the enzyme concentration (to achieve a 1:10 or 1:5 ratio). Every titration started with a small 0.3 μL injection introduced to compensate for the diffusion effects. One of the following injection profiles was chosen based on the activity of the ligand and binding heat released: 1.2 μL × 32 or 1.5 μL × 26—all with 120 s time spacing between every injection and 600 rpm. Each ligand was titrated at least two times. The reference baseline consisting of small peaks of identical size (titration of the corresponding ligand into the buffer) was subtracted from the data before fitting to correct for the heat of the ligand dilution. The first injection was excluded from each dataset. The final data were fitted to a theoretical titration curve (one set of sites fitting model) using MicroCal Origin 7 SR4 software (OriginLab, Northampton, MA, USA).

In data set [2] the target is T1, human FABP3. Put plainly: ITC assay of ligand binding to apo-FABP3. To be noted: KPi pH 7.6, 25 °C; for N (stoichiometry): protein assumed 100% active and delipidated. The protocol: as §1, with “All titrations except for the determination of the heat capacity, ΔCp, were performed at 25 °C using 20–120 μM protein.” left out, “280 μL of the protein solution in the sample cell were titrated with the ligand solution diluted to 200–1200 μM depending on the enzyme concentration (to achieve a 1:10 or 1:5 ratio).” left out
Background: Isothermal titration calorimetry measures the heat released or taken up as one component is titrated into another.

For data set [3], the target named is T1, human FABP3. Kind of data set: ITC competitive binding experiments (FABP3 pre-saturated with a competing ligand). Particulars: 25 °C. The protocol:
as §1, with “The final data were fitted to a theoretical titration curve (one set of sites fitting model) using MicroCal Origin 7 SR4 software (OriginLab, Northampton, MA, USA).” left out

Data set [4] can be described thus: in vitro. To be noted: human.
Experimental: PANC-1 (ATCC® CRL-1469™) pancreatic epithelial carcinoma cells were obtained from ATCC® (Manassas, VA, USA). PANC-1 cells were chosen as they are suitable for transfection and are characterized by low endogenous expression levels of FABP3. The cells were grown in Dulbecco’s Modified Eagle’s Medium (DMEM) supplemented with 10% (v/v) fetal bovine serum (FBS) and 1% (v/v) penicillin/streptomycin (Pen/Strep) at 37 °C in a humidified incubator with 5% CO2. All reagents for cell maintenance were purchased from Thermo Fisher Scientific. For experiments, PANC-1 cells were seeded at density 1 × 10^5 cells∙mL^−1 (100 μL per well) in the 96-well plate. Cells were left to attach to the plate overnight. Briefly, before the experiment, PANC-1 cells in 96-well plates were washed with Hanks’ Balanced Salt Solution (HBSS) several times. For all cell experiments, serum-free DMEM media were used.
Briefly, the cell media were removed from the wells. A solution of MTT was added to each well at the concentration of 1 mg∙mL^−1. The plate was incubated for 2 h at 37 °C. Then the MTT solution was removed and 100 μL of isopropyl alcohol was added to each well to dissolve the formazan crystals produced by living cells. The plate was then measured by the Hidex plate reader (Hidex Oy, Turku, Finland).
A short description of data set [5]: LCAC cytotoxicity assay (MTT) in FABP3-overexpressing PANC-1 cells. The data set is classed as cell-based. To be noted: human, 40 μM C16:0-carnitine, cells transfected with the FABP3 plasmid, read-out: cell viability. The source says:
Cells were left to attach to the plate overnight.
Briefly, the cell media were removed from the wells.
Next, we tested whether overexpression of FABP3 could result in protective effects regarding the cell viability of the PANC-1 cells. The commercially available FuGENE® HD transfection reagent (Promega Corporation, Madison, WI, USA) was mixed with the FABP3 (NM_010174) mouse tagged ORF clone plasmid (OriGene Technologies, Inc., Rockville, MD, USA) in a 4:1 ratio for transfection according to the manufacturer’s protocol. Transfection was performed for 24 h in 6-well plates. To ensure transfection efficiency, quantitative PCR (qPCR) and Western blot analysis were performed (see Figures S52 and S53). Transfected PANC-1 cells were transferred to 96-well plates and further examined for C16:0-carnitine toxicity at various concentrations as previously described. The obtained results were compared to the effects in native cells.

For data set [6], the target named is T1, human FABP3. Put plainly: Ligand binding by NMR (2D 1H-15N HSQC chemical shift perturbations). To be noted: KPi buffer pH 7.6. The protocol: NMR spectra were acquired on the 600 MHz Bruker Avance Neo spectrometer (Bruker Biospin GmbH, Rheinstetten, Germany) equipped with a 5-mm quadruple-resonance CryoProbe (QCI) with z-gradients. […] All experiments were performed in KPi buffer without or with TX and with the addition of 7% (v/v) D2O, 0.03% (v/v) NaN3, and 0.01% (v/v) SigmaFAST EDTA-free protease inhibitor cocktail to prevent protein degradation. The amount of organic solvent (ethanol or DMSO-d6) was below 2% (v/v) in each experiment.
3D HNCA, 3D HNCO, 3D HN(CA)CO, and 3D CBCA(CO)NH spectra were acquired for the backbone assignment. 3D [^1H,^1H]-nuclear Overhauser spectroscopy (NOESY)-^15N-heteronuclear single-quantum correlation (HSQC) spectrum was acquired using a mixing time of 100 ms and also used in the backbone assignment. 2D ^1H-^15N HSQC spectra were acquired for evaluation of the CSPs caused by the lipid binding. Chemical shifts were referenced internally to the residual water signal at 4.70 ppm relative to the 4,4-dimethyl-4-silapentane-1-sulfonic acid (DSS). […] Other complexes were analyzed by analogy and with the help of 3D [^1H-^1H]-NOESY-^15N-HSQC. All spectra were processed in TopSpin v. 4.1.1. (Bruker, Billerica, MA, USA) and analyzed in CARA 1.9.1. software. Residue-specific protein backbone amide assignment was performed based on the published chemical shifts. CSPs, Δδ, were calculated using Equation (1) with the scaling factor, α, which was set to 0.1 [67, 68]. (1) Δδ=1/2[δH2+α·δN^2],

Where [7] appears, read: FABP3 saturated with C18:1(n-9)t-carnitine, titrated with the FA, KPi without TX, Competitive Binding model.
Setting [8] is: FABP3 saturated with C18:1(n-9)t-carnitine, titrated with the FA, KPi without TX, One Set of Sites model.
The mark [9] stands for this setting: FABP3 saturated with C8:0, titrated with C18:1(n-9)t-carnitine, KPi, Competitive Binding model.
[10] abbreviates: FABP3 saturated with C8:0, titrated with C18:1(n-9)t-carnitine, KPi, One Set of Sites model.

From paper PMC10058761, “Heart-Type Fatty Acid Binding Protein Binds Long-Chain Acylcarnitines and Protects against Lipotoxicity” (International Journal of Molecular Sciences, 2023) come the findings set out here.

“And” between values parts separate entries of the source, which are not always exact repeats. Equal entries are not always repeated.

T1 sequence (P05413 whole entry): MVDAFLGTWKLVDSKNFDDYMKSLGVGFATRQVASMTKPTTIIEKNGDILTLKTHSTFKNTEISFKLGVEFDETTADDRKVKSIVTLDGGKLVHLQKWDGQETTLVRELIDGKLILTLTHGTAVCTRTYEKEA

On to `CCCCCCCCCCCC(=O)O` [C12:0, laurate], for which the ΔCp in data set [1] (KPi without TX) is −0.33 kcal∙mol^−1∙K^−1 and −0.33 ± 0.01 kcal∙mol^−1∙K^−1. Moreover, in data set [2] (with 0.1% TX), the Kd – broadly, the equilibrium constant for the complex coming apart – was found to be 570 ± 60 nM; the ΔG was -8.54 ± 0.06 kcal/mol; the ΔH was -14.5 ± 0.4 kcal/mol; the “−TΔS” value was found to be 6.0 ± 0.3 kcal/mol. The “N (stoichiometry)” value in data set [2] (with 0.1% TX) was 1.0. In data set [2] (without TX), the affinity, expressed as Kd, was 200 ± 20 nM; the ΔG was -9.12 ± 0.06 kcal/mol; the ΔH was -8.60 ± 0.08 kcal/mol; the “−TΔS” value is -0.53 ± 0.02 kcal/mol. Besides, the “N (stoichiometry)” value in data set [2] (without TX) stood at 1.0. In data set [3] (setting [7]), the “-TΔS” value was -0.4 ± 1.1 kcal/mol, the ΔG was -12.5 ± 0.9 kcal/mol and the ΔH was -12.1 ± 0.2 kcal/mol. In data set [3] (setting [8]), the “-TΔS” value is -1.0 ± 0.1 kcal/mol, the equilibrium dissociation constant (Kd) turned out to be 360 ± 30 nM, the ΔG was -8.80 ± 0.04 kcal/mol and the ΔH was -7.8 ± 0.2 kcal/mol.

`CCCCCCCCCCCCCCCC(=O)O[C@H](CC(=O)[O-])C[N+](C)(C)C` [C16:0-carnitine] showed a CC50 at 4 h in data set [4] of approximately 25 µM. Also, the viability (in general, a per cent measure of how many cells are alive, often set against a control) at 4 h, 40 μM in data set [4] is less than 20%; in data set [5], approximately 70%. In addition, in data set [6], the “binding to FABP3 by NMR (CSPs in 2D 1H-15N HSQC)” value (from here on “binding to FABP3 by NMR”) was “did not show any significant CSPs”.

In data set [1] (KPi without TX), `CCCCCCCC/C=C\CCCCCCCC(=O)O[C@H](CC(=O)O)C[N+](C)(C)C.[Cl-]` [C18:1(n-9)c-carnitine, oleoylcarnitine] came in with a ΔCp of −0.09 ± 0.01 kcal∙mol^−1∙K^−1. For the same compound, in data set [2] (without TX), binding was put at a Kd of 2210 ± 70 nM, the ΔG is -7.72 ± 0.01 kcal/mol, the ΔH was -4.6 ± 0.2 kcal/mol and the “−TΔS” value is -3.1 ± 0.2 kcal/mol. Further, the “N (stoichiometry)” value in data set [2] (without TX) worked out at 0.5. The “binding to FABP3 by NMR” value in data set [6] is recorded as “strong CSPs indicative of binding”.

As to `CCCCCCCC/C=C/CCCCCCCC(=O)O[C@H](CC(=O)O)C[N+](C)(C)C` [C18:1(n-9)t-carnitine, elaidoylcarnitine], the ΔCp in data set [1] (KPi without TX) is listed as −0.14 ± 0.01 kcal∙mol^−1∙K^−1. Besides, in data set [2] (without TX), the dissociation constant Kd was 2200 nM and 2190 nM; the ΔG was -7.72 ± 0.02 kcal/mol; the “N (stoichiometry)” value turned out to be 0.5. Moreover, the “binding to FABP3 by NMR” value in data set [6] is reported as “strong CSPs indicative of binding”. Moreover, in data set [3] (setting [9]), the “-TΔS” value stood at 0.32 ± 0.09 kcal/mol, the ΔG was -11.7 ± 0.1 kcal/mol and the ΔH is -12.0 ± 0.3 kcal/mol. Besides, in data set [3] (setting [10]), the “-TΔS” value is -5.8 ± 0.3 kcal/mol, the Kd was 1800 ± 200 nM, the ΔG is -7.85 ± 0.08 kcal/mol and the ΔH was -2.0 ± 0.2 kcal/mol. In addition, the “binding heat effects in competition titration” value in data set [3] (FABP3 saturated with C10:0, titrated with C18:1(n-9)t-carnitine, KPi) is “no binding heat effects were detected”.

For `CC/C=C\C/C=C\C/C=C\C/C=C\C/C=C\CCCC(=O)O` [C20:5(n-3)c, EPA], the ΔCp in data set [1] (KPi with 0.1% TX) is −0.37 ± 0.03 kcal∙mol^−1∙K^−1. Moreover, in data set [2] (with 0.1% TX), the Kd worked out at 1600 ± 200 nM, the ΔG is -7.90 ± 0.07 kcal/mol, the ΔH is -17.4 ± 0.7 kcal/mol and the “−TΔS” value worked out at 9.5 ± 0.8 kcal/mol. The “N (stoichiometry)” value in data set [2] (with 0.1% TX) stood at 1.0.

As to `CC/C=C\C/C=C\C/C=C\C/C=C\C/C=C\CCCC(=O)O[C@H](CC(=O)O)C[N+](C)(C)C` [C20:5(n-3)c-carnitine, EPA-carnitine], the ΔCp in data set [1] (KPi without TX) is reported as −0.07 ± 0.01 kcal∙mol^−1∙K^−1. Further, in data set [2] (without TX), the Kd came to 14830 ± 80 nM, the ΔG is -6.61 ± 0.03 kcal/mol, the ΔH is -2.43 ± 0.09 kcal/mol and the “−TΔS” value was -4.19 ± 0.06 kcal/mol. Also, the “N (stoichiometry)” value in data set [2] (without TX) is 1.0. Besides, the “binding to FABP3 by NMR” value in data set [6] is “strong CSPs indicative of binding”.
